Measurements taken from patent publication US20260138958A1, “SUBSTITUTED N-PHENYLURACILS AND SALTS THEREOF, AND USE THEREOF AS HERBICIDAL ACTIVE SUBSTANCES” (Bayer Aktiengesellschaft, priority 2022, published 2026).

What was measured:
Type in all cases: in vivo
[1] = tested on: Polygonum convolvulus (POLCO); assay: Post-emergence herbicidal action, greenhouse pot test; conditions: 20 g/ha
Method: (§1) Seeds of monocotyledonous and dicotyledonous weeds and crop plants were placed in sandy loam in plastic or wood-fibre pots, covered with soil and cultivated in a greenhouse under controlled growth conditions. 2 to 3 weeks after sowing, the test plants were treated at the one-leaf stage. The compounds of the invention, formulated in the form of wettable powders (WP) or as emulsion concentrates (EC), were then sprayed onto the green parts of the plants as aqueous suspension or emulsion with addition of 0.5% additive at a water application rate of 600 l/ha (converted). After the test plants had been kept in the greenhouse under optimum growth conditions for about 3 weeks, the activity of the preparations was rated visually in comparison to untreated controls. For example, 100% activity=the plants have died, 0% activity=like control plants.

[2] = tested on: Echinochloa crus-galli (ECHCG); assay: as above
Method: as §1

[3] = tested on: Abutilon theophrasti (ABUTH); assay: as above
Method: as §1

Setaria viridis (SETVI) = assay: as above
Method: as §1

Veronica persica (VERPE) = assay: as above
Method: as §1

[4] = tested on: Pharbitis purpurea (PHBPU); assay: as above
Method: as §1

Bassia scoparia (KCHSC) = assay: as above
Method: as §1

[5] = tested on: Tripleurospermum inodorum (MATIN); assay: as above; conditions: 20 g/ha
Method: as §1

[6] = tested on: Digitaria sanguinalis (DIGSA); assay: as above
Method: as §1

Viola tricolor (VIOTR) = assay: as above
Method: as §1

[7] = tested on: Amaranthus retroflexus (AMARE); assay: as above
Method: as §1

[8] = tested on: Triticum aestivum (TRZAS); assay: Post-emergence crop plant compatibility, greenhouse pot test; conditions: crop plant, post-emergence, 1.25 g/ha
Method: as §1
The observed effects on selected crop plants are reported here in comparison to the untreated controls (values in %).

Cn1c(C(F)(F)F)cc(=O)n(-c2cc(Oc3cc(F)ccc3OCC(=O)OCC3CC3)c(Br)cc2F)c1=O [I.24-1]
Post-emergence effect at 20 g/ha against POLCO in % [1]: 100% | Post-emergence effect at 5 g/ha against ECHCG in % ([2]; 5 g/ha): 80% | Post-emergence effect at 20 g/ha against ECHCG in % ([2]; 20 g/ha): 100% | Post-emergence effect at 1.25 g/ha against ABUTH in % ([3]; 1.25 g/ha): 100% | Post-emergence effect at 5 g/ha against ABUTH in % ([3]; 5 g/ha): 100% | Post-emergence effect at 20 g/ha against ABUTH in % ([3]; 20 g/ha): 100% | Post-emergence effect at 1.25 g/ha against SETVI in % (Setaria viridis (SETVI); 1.25 g/ha): 90% | Post-emergence effect at 5 g/ha against SETVI in % (Setaria viridis (SETVI); 5 g/ha): 100% | Post-emergence effect at 20 g/ha against SETVI in % (Setaria viridis (SETVI); 20 g/ha): 100% | Post-emergence effect at 5 g/ha against VERPE in % (Veronica persica (VERPE); 5 g/ha): 100% | Post-emergence effect at 20 g/ha against VERPE in % (Veronica persica (VERPE); 20 g/ha): 100% | Post-emergence effect at 1.25 g/ha against PHBPU in % ([4]; 1.25 g/ha): 80% | Post-emergence effect at 5 g/ha against PHBPU in % ([4]; 5 g/ha): 100% | Post-emergence effect at 20 g/ha against PHBPU in % ([4]; 20 g/ha): 100% | Post-emergence effect at 1.25 g/ha against KCHSC in % (Bassia scoparia (KCHSC); 1.25 g/ha): 100% | Post-emergence effect at 5 g/ha against KCHSC in % (Bassia scoparia (KCHSC); 5 g/ha): 100% | Post-emergence effect at 20 g/ha against KCHSC in % (Bassia scoparia (KCHSC); 20 g/ha): 100% | Post-emergence effect at 20 g/ha against MATIN in % [5]: 80% | Post-emergence effect at 1.25 g/ha against DIGSA in % ([6]; 1.25 g/ha): 80% | Post-emergence effect at 5 g/ha against DIGSA in % ([6]; 5 g/ha): 100% | Post-emergence effect at 20 g/ha against DIGSA in % ([6]; 20 g/ha): 100% | Post-emergence effect at 5 g/ha against VIOTR in % (Viola tricolor (VIOTR); 5 g/ha): 100% | Post-emergence effect at 20 g/ha against VIOTR in % (Viola tricolor (VIOTR); 20 g/ha): 100% | Post-emergence effect at 1.25 g/ha against AMARE in % ([7]; 1.25 g/ha): 100% | Post-emergence effect at 5 g/ha against AMARE in % ([7]; 5 g/ha): 100% | Post-emergence effect at 20 g/ha against AMARE in % ([7]; 20 g/ha): 100% | Post-emergence effect at 1.25 g/ha against TRZAS in % [8]: 20%

Cn1c(C(F)(F)F)cc(=O)n(-c2cc(Oc3ccccc3OCC(=O)OC3CCCCC3)c(Cl)cc2F)c1=O [a-29, reference compound]
VERPE (efficacy in %) (Veronica persica (VERPE); Table B4 comparison, application rate 1.25 g/ha): 90%

Cn1c(C(F)(F)F)cc(=O)n(-c2cc(Oc3ccccc3OCC(=O)OC3CCCCCC3)c(Cl)cc2F)c1=O [reference compound]
ECHCG (efficacy in %) ([2]; Table B5 comparison, application rate 1.25 g/ha): 80%
